Results from PubChem BioAssay (NCI).
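48-hour exposure; five concentrations; linearly interpolated endpoints. GI50 is the concentration that inhibits growth by half. TGI is the concentration that stops growth completely.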

Key:
Test in all cases: growth of human tumour cells (NCI), 48 h
SF-295 CNS = system: SF-295 CNS
HT29 colon = system: HT29 colon
ACHN renal = system: ACHN renal
SNB-19 CNS = system: SNB-19 CNS
MOLT-4 leukemia = system: MOLT-4 leukemia
EKVX NSCLC = system: EKVX NSCLC
HCT-15 colon = system: HCT-15 colon
SK-MEL-2 melanoma = system: SK-MEL-2 melanoma
K-562 leukemia = system: K-562 leukemia

Compound	TGI (SF-295 CNS)	TGI (HT29 colon)	TGI (ACHN renal)	TGI (SNB-19 CNS)	TGI (MOLT-4 leukemia)	TGI (EKVX NSCLC)	TGI (HCT-15 colon)	TGI (SK-MEL-2 melanoma)	TGI (K-562 leukemia)	GI50 (HT29 colon)	GI50 (ACHN renal)	GI50 (SNB-19 CNS)	GI50 (MOLT-4 leukemia)	GI50 (HCT-15 colon)	GI50 (SK-MEL-2 melanoma)	GI50 (K-562 leukemia)
[N-]=[N+]=CC(=O)OCC1SCCCS1	> 100 µM	> 100 µM	> 100 µM	> 100 µM	> 100 µM	> 100 µM	> 100 µM	> 100 µM	> 100 µM							
NC(=S)Nc1[nH]c(=S)nc2c1SC1=N/C(=C\c3ccco3)C(=O)N12	> 100 µM	> 100 µM	> 100 µM	> 100 µM	> 100 µM	> 100 µM	> 100 µM	> 100 µM	> 66.5 µM							
CSC1=C(C#N)C(=O)N(c2ccc(C)cc2)C(=S)C1C#N (stereo unspecified)	> 100 µM	> 100 µM	> 100 µM	> 100 µM	> 100 µM	> 100 µM	> 100 µM	> 100 µM	> 100 µM							
C#CC(F)(F)[C@]1(O)CC[C@H]2[C@@H]3CCC4=CC(=O)CCC4=C3[C@@H](c3ccc(C(C)=O)cc3)C[C@@]21C		> 50.5 µM	97 µM	> 100 µM	63.4 µM		56.8 µM	32.8 µM	> 100 µM	0.109 µM	10.1 µM	28.4 µM	3.9 µM	14.3 µM	13.2 µM	8.64 µM
Nc1ccccc1N/C=C\C(=O)C(Cl)(Cl)Cl	75.1 µM	34.6 µM	35.1 µM	> 100 µM	> 100 µM	30.5 µM	46.1 µM	53.7 µM	78.9 µM							
CCCNC(C#N)c1ccc(C(C#N)NCCC)cc1 (stereo unspecified)	> 100 µM	> 100 µM	> 100 µM	> 100 µM	> 100 µM	> 100 µM	> 100 µM	> 100 µM	> 100 µM							
COc1ccc2c(c1)N=C1CSC(c3ccccc3Cl)N1C2 (stereo unspecified)	42.4 µM	19.6 µM	41.8 µM	> 100 µM	15.7 µM	22 µM	87.8 µM	30.3 µM	75.7 µM							
CC[C@H](C)[C@H]1NC(=O)[C@@H](NC(=O)[C@@H](CC(C)C)N(C)CC2CCCN2C(=O)C(C)=O)[C@@H](C)OC(=O)[C@H](Cc2ccc(OC)cc2)N(C)C(=O)C2CCCN2C(=O)[C@H](CC(C)C)NC(=O)[C@@H](C)C(=O)[C@H](C(C)C)OC(=O)C[C@@H]1O (stereo partly specified)	0.042 µM	0.0065 µM	0.0389 µM	0.0115 µM	0.00608 µM	0.0509 µM	0.73 µM	0.00703 µM	0.0158 µM							
Oc1[nH]c2ccccc2c1N=Nc1nc(-c2ccc(Cl)c(Cl)c2)cs1	> 100 µM	> 100 µM	> 100 µM	> 100 µM	> 100 µM	> 100 µM	> 100 µM	> 100 µM								
COc1cc(/C=C2\N=C(c3ccccc3)N(c3nc4c(OC)ccc(OC)c4s3)C2=O)cc(OC)c1OC	> 100 µM	> 100 µM	> 100 µM	> 100 µM	> 100 µM	> 100 µM	> 100 µM	> 100 µM	> 100 µM							
O=c1[nH]c(=O)n(Cc2ccccc2CO)cc1Sc1ccccc1	> 100 µM	> 100 µM	96.4 µM	> 100 µM	> 100 µM	60.8 µM	53.5 µM	45.8 µM	> 100 µM							
O=C1C=C(Br)c2c(Br)sc(Br)c21	99.4 µM	44.5 µM	15.3 µM	35.7 µM	12.2 µM	37.3 µM	20.5 µM	49.3 µM	> 36.7 µM							
OC1(c2cc3ccccc3s2)CCCCC1	> 100 µM	54.5 µM	> 100 µM	> 100 µM	67.4 µM	71.7 µM	> 100 µM		> 100 µM							
Cc1ccc(N2CCc3c(C)c(C#N)c4nc5ccccc5n4c32)cc1	> 100 µM	> 100 µM	> 100 µM	> 100 µM			> 100 µM	> 100 µM								
COC(OC)C1OC(CO)C(n2ccc(N)nc2=O)C1O (stereo unspecified)	> 100 µM	> 100 µM	> 100 µM	> 100 µM	> 100 µM	> 100 µM	> 100 µM	> 100 µM	> 100 µM							
O=c1c2cc(I)ccc2nc(Sc2ncccc2[N+](=O)[O-])n1Cc1ccccc1	> 100 µM	> 100 µM	> 100 µM	> 100 µM	> 100 µM	71.2 µM	> 100 µM	30.8 µM	> 100 µM							
CN(C)CCNC(=O)c1cccc2nc3c(nc12)-c1ccccc1C3=O	39 µM	22.8 µM	32.1 µM	47.6 µM	7.52 µM	48.6 µM	41.4 µM	32.4 µM	> 100 µM							
O=c1[nH]nc(-c2ccccc2)n1/N=C/c1c(O)ccc2ccccc12	82.4 µM	> 100 µM	> 100 µM	85.4 µM	> 100 µM	> 100 µM	> 100 µM	> 100 µM	> 100 µM							
CNC(=O)c1cc(NC(=O)N(CCC#N)CCN(C(=O)N[C@@H](Cc2ccccc2)C(=O)N[C@@H](CC(C)C)C(=O)NC)c2ccccc2)ccc1OC	> 100 µM	> 100 µM	> 100 µM	> 100 µM	> 100 µM	> 100 µM	> 100 µM	> 74.5 µM								
COC(=O)/C=C/c1cc(O)c2c(c1)[C@H](C(=O)OC)[C@@H](c1ccc(O)c(O)c1)O2	> 93.2 µM	> 37.9 µM	> 85.2 µM		> 45.7 µM	> 85 µM	> 100 µM	> 70 µM								
CCc1ccc2[nH]c(O)c(-c3[nH]c4ccccc4c3N=O)c2c1	20.5 µM	25.5 µM	14.7 µM	31.6 µM	> 100 µM	20 µM	15.1 µM	15.3 µM	97.1 µM							
